Biological target: T1, Promotilin (Homo sapiens, UniProt P12872)
T1 sequence (P12872 whole entry): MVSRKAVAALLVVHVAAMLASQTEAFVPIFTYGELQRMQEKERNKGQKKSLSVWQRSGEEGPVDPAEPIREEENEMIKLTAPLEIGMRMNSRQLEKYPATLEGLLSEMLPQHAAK

Ki [µM]	Compound
0.0589	CC[C@H]1OC(=O)[C@H](C)[C@@H](O[C@H]2C[C@@](C)(OC)C[C@H](C)O2)[C@H](C)[C@@H](O[C@@H]2O[C@H](C)C[C@H](N(C)CC)[C@H]2O)[C@@]2(C)CC(C)=C(O2)[C@H](C)[C@@H](O)[C@H]1C [ABT-229]
> 10	C#CCN(C)C1CC(C)OC(OC2C(C)C(OC3CC(C)(OC)C(O)C(C)O3)C(C)C(=O)OC(CC)C(C)(O)C(O)C(C)C(=O)C(C)CC2(C)O)C1O (stereo unspecified) [ME36]

The next lines start with the compound.

Compound	Ki [µM]
CC[C@H]1OC(=O)[C@H](C)[C@@H](O[C@H]2C[C@@](C)(OC)[C@@H](O)[C@H](C)O2)[C@H](C)[C@@H](O[C@@H]2O[C@H](C)C[C@H](N(C)C)[C@H]2O)[C@](C)(O)C[C@@H](C)C(=O)[C@H](C)[C@@H](O)[C@]1(C)O [CAS_114-07-8]	3.09
CC[C@H](C)[C@H](NC(=O)[C@@H]1CCCN1C(=O)[C@@H](NC(=O)[C@@H](N)Cc1ccccc1)C(C)C)C(=O)N[C@@H](Cc1ccccc1)C(=O)N[C@H](C(=O)N[C@@H](Cc1ccc(O)cc1)C(=O)NCC(=O)N[C@@H](CCC(=O)O)C(=O)N[C@@H](CC(C)C)C(=O)N[C@@H](CCC(N)=O)C(=O)N[C@@H](CCCNC(=N)N)C(=O)N[C@@H](CCSC)C(=O)N[C@@H](CCC(N)=O)C(=O)N[C@@H](CCC(=O)O)C(=O)N[C@@H](CCCCN)C(=O)N[C@@H](CCC(=O)O)C(=O)N[C@@H](CCCNC(=N)N)C(=O)N[C@@H](CC(N)=O)C(=O)N[C@@H](CCCCN)C(=O)NCC(=O)N[C@@H](CCC(N)=O)C(=O)O)[C@@H](C)O [CAS_52906-92-0]	0.00282
CC[C@H]1OC(=O)[C@H](C)[C@@H](O[C@H]2C[C@@](C)(OC)[C@@H](O)[C@H](C)O2)[C@H](C)[C@@H](O[C@@H]2O[C@H](C)C[C@H](N(C)C)[C@H]2O)[C@]2(C)CC(C)=C(O2)[C@H](C)[C@@H](O)[C@@H]1C [EM-B enolether]	0.324
CC[C@H]1OC(=O)[C@H](C)[C@@H](O[C@H]2C[C@@](C)(OC)[C@@H](O)[C@H](C)O2)[C@H](C)[C@@H](O[C@@H]2O[C@H](C)C[C@H](N(C)C)[C@H]2O)[C@@]2(C)CC(C)=C(O2)[C@H](C)[C@@H](O)[C@]1(C)O [Erythromycin-A enol ether]	0.257

From BindingDB's records for doi:10.1124/jpet.104.081497 (Katholieke Universiteit Leuven, 2005)
